Test results: patent US20250144067A1, “PERSONALIZED STARVATION THERAPY FOR CANCER” (Faeth Therapeutics, Inc., priority 2021, published 2025)
Where a name gives a salt, the structure may show the parent alone.

system: NCI-H292 lung cancer cells; assay: FDA drug screening, complete media vs cholesterol-free media without statin (TABLE 1); format: cell-based, human; conditions: Complete minus Cholesterol-free; greater than 0 enhanced anti-cancer activity, about 0 neutral, below 0 antagonist

**Q.** How did the Difference turn out when `O=C(Cn1cnnn1)N[C@@H]1C(=O)N2C(C(=O)O)=C(CSc3nncs3)CS[C@H]12` [Ceftezole (sodium)] was run?
**A.** Its Difference is −0.11.

**Q.** With `CO/N=C(\C(=O)N[C@@H]1C(=O)N2C(C(=O)OC(C)OC(C)=O)=C(COC(N)=O)CS[C@H]12)c1ccco1` (stereo partly drawn) [Cefuroxime axetil] as the compound, how does the Difference read?
**A.** Its Difference is −0.18.

**Q.** How did the Difference turn out when `CN(C)CCN(Cc1ccc(Cl)cc1)c1ccccn1` [Chloropyramine hydrochloride] was run?
**A.** Its Difference is −0.17.

same assay, conditions: Complete minus Cholesterol-free; greater than 0 enhanced anti-cancer activity, about 0 neutral, below 0 antagonists

**Q.** How did the Difference turn out when `CC(=O)O[C@]1(C(C)=O)CC[C@H]2[C@@H]3C=C(Cl)C4=CC(=O)CC[C@]4(C)[C@H]3CC[C@@]21C` [Chlormadinone acetate] was run?
**A.** The Difference was −0.74.

same assay, conditions: NCI-H292 cells in cholesterol-free media without statin

**Q.** Which Cholesterol-free does the source give for `CC(=O)O[C@]1(C(C)=O)CC[C@H]2[C@@H]3C=C(Cl)C4=CC(=O)CC[C@]4(C)[C@H]3CC[C@@]21C` [Chlormadinone acetate] here?
**A.** Its Cholesterol-free is 1.695.

same assay, conditions: NCI-H292 cells in complete media

**Q.** With `CC(=O)O[C@]1(C(C)=O)CC[C@H]2[C@@H]3C=C(Cl)C4=CC(=O)CC[C@]4(C)[C@H]3CC[C@@]21C` [Chlormadinone acetate] as the compound, how does the Complete read?
**A.** Its Complete is 0.9505.

same assay, conditions: NCI-H292 cells, FDA drug library screen, cholesterol-free media without statin

**Q.** With `O=C(Cn1cnnn1)N[C@@H]1C(=O)N2C(C(=O)O)=C(CSc3nncs3)CS[C@H]12` [Ceftezole (sodium)] as the compound, how does the Cholesterol-free read?
**A.** The Cholesterol-free was 1.089.

**Q.** With `CO/N=C(\C(=O)N[C@@H]1C(=O)N2C(C(=O)OC(C)OC(C)=O)=C(COC(N)=O)CS[C@H]12)c1ccco1` (stereo partly drawn) [Cefuroxime axetil] as the compound, how does the Cholesterol-free read?
**A.** Its Cholesterol-free is 0.8605.

**Q.** How did the Cholesterol-free turn out when `CN(C)CCN(Cc1ccc(Cl)cc1)c1ccccn1` [Chloropyramine hydrochloride] was run?
**A.** Its Cholesterol-free is 1.558.

same assay, conditions: NCI-H292 cells, FDA drug library screen, complete media

**Q.** How did the Complete turn out when `O=C(Cn1cnnn1)N[C@@H]1C(=O)N2C(C(=O)O)=C(CSc3nncs3)CS[C@H]12` [Ceftezole (sodium)] was run?
**A.** The Complete was 0.9806.

**Q.** `CO/N=C(\C(=O)N[C@@H]1C(=O)N2C(C(=O)OC(C)OC(C)=O)=C(COC(N)=O)CS[C@H]12)c1ccco1` (stereo partly drawn) [Cefuroxime axetil] was tested. Which Complete did it give?
**A.** Its Complete is 0.6767.

**Q.** How did the Complete turn out when `CN(C)CCN(Cc1ccc(Cl)cc1)c1ccccn1` [Chloropyramine hydrochloride] was run?
**A.** The Complete was 1.385.

same assay, conditions: NCI-H292 cells, cholesterol-free media without statin

**Q.** How did the Cholesterol-free turn out when `Cc1ccc(-c2cc(C(F)(F)F)nn2-c2ccc(S(N)(=O)=O)cc2)cc1` [Celecoxib] was run?
**A.** The Cholesterol-free was 1.362.

**Q.** How did the Cholesterol-free turn out when `CC1=C(C(=O)O)N2C(=O)[C@@H](NC(=O)[C@H](N)c3ccccc3)[C@H]2SC1` [Cephalexin (monohydrate)] was run?
**A.** Its Cholesterol-free is 1.506.

**Q.** How did the Cholesterol-free turn out when `CC1=C(C(=O)O)N2C(=O)[C@@H](NC(=O)[C@H](N)c3ccccc3)[C@H]2SC1` [Cephalexin] was run?
**A.** The Cholesterol-free was 1.173.

same assay, conditions: NCI-H292 cells, complete media

**Q.** With `Cc1ccc(-c2cc(C(F)(F)F)nn2-c2ccc(S(N)(=O)=O)cc2)cc1` [Celecoxib] as the compound, how does the Complete read?
**A.** Its Complete is 0.9472.

**Q.** For `CC1=C(C(=O)O)N2C(=O)[C@@H](NC(=O)[C@H](N)c3ccccc3)[C@H]2SC1` [Cephalexin (monohydrate)], which Complete is on record?
**A.** Its Complete is 1.062.

**Q.** For `CC1=C(C(=O)O)N2C(=O)[C@@H](NC(=O)[C@H](N)c3ccccc3)[C@H]2SC1` [Cephalexin], which Complete is on record?
**A.** Its Complete is 0.8408.

same assay, conditions: complete vs cholesterol-free media; greater than 0 enhanced anti-cancer activity, about 0 neutral, below 0 antagonists

**Q.** `Cc1ccc(-c2cc(C(F)(F)F)nn2-c2ccc(S(N)(=O)=O)cc2)cc1` [Celecoxib] was tested. Which Difference did it give?
**A.** Its Difference is −0.42.

**Q.** For `CC1=C(C(=O)O)N2C(=O)[C@@H](NC(=O)[C@H](N)c3ccccc3)[C@H]2SC1` [Cephalexin (monohydrate)], which Difference is on record?
**A.** Its Difference is −0.44.

**Q.** Which Difference does the source give for `CC1=C(C(=O)O)N2C(=O)[C@@H](NC(=O)[C@H](N)c3ccccc3)[C@H]2SC1` [Cephalexin] here?
**A.** Its Difference is −0.33.

system: NCI-H292 lung cancer cells; assay: FDA drug screening, complete media vs cholesterol-free media with simvastatin (TABLE 2); format: cell-based, human; conditions: NCI-H292 cells, FDA library drug in cholesterol-free media with simvastatin 0.04 μM

**Q.** How did the “Cholesterol-free media + simvastatin (0.04 μM)” value turn out when `CC1=C(C(=O)O)N2C(=O)[C@@H](NC(=O)[C@H](N)c3ccccc3)[C@H]2SC1` [Cephalexin (monohydrate)] was run?
**A.** The value was 1.59.

**Q.** `CC1=C(C(=O)O)N2C(=O)[C@@H](NC(=O)[C@H](N)c3ccccc3)[C@H]2SC1` [Cephalexin] was tested. Which “Cholesterol-free media + simvastatin (0.04 μM)” value did it give?
**A.** Its value is 1.341.

same assay, conditions: NCI-H292 cells, FDA library drug in complete media

**Q.** With `CC1=C(C(=O)O)N2C(=O)[C@@H](NC(=O)[C@H](N)c3ccccc3)[C@H]2SC1` [Cephalexin (monohydrate)] as the compound, how does the “Complete Media” value read?
**A.** Its value is 0.9161.

**Q.** How did the “Complete Media” value turn out when `CC1=C(C(=O)O)N2C(=O)[C@@H](NC(=O)[C@H](N)c3ccccc3)[C@H]2SC1` [Cephalexin] was run?
**A.** The value was 0.9798.

same assay, conditions: NCI-H292 cells, cholesterol-free media with simvastatin 0.04 μM; FDA drug library screen (TABLE 2)

**Q.** `CC(=O)O[C@]1(C(C)=O)CC[C@H]2[C@@H]3C=C(Cl)C4=CC(=O)CC[C@]4(C)[C@H]3CC[C@@]21C` [Chlormadinone acetate] was tested. Which “Cholesterol-free media + simvastatin (0.04 μM)” value did it give?
**A.** The value was 1.079.

same assay, conditions: NCI-H292 cells, cholesterol-free media with simvastatin 0.04 μM; cell growth value in FDA drug screen

**Q.** Which “Cholesterol-free media + simvastatin (0.04 μM)” value does the source give for `O=C(Cn1cnnn1)N[C@@H]1C(=O)N2C(C(=O)O)=C(CSc3nncs3)CS[C@H]12` [Ceftezole (sodium)] here?
**A.** Its value is 1.052.

**Q.** With `CO/N=C(\C(=O)N[C@@H]1C(=O)N2C(C(=O)OC(C)OC(C)=O)=C(COC(N)=O)CS[C@H]12)c1ccco1` (stereo partly drawn) [Cefuroxime axetil] as the compound, how does the “Cholesterol-free media + simvastatin (0.04 μM)” value read?
**A.** Its value is 1.05.

**Q.** For `Cc1ccc(-c2cc(C(F)(F)F)nn2-c2ccc(S(N)(=O)=O)cc2)cc1` [Celecoxib], which “Cholesterol-free media + simvastatin (0.04 μM)” value is on record?
**A.** Its value is 1.271.

**Q.** Which “Cholesterol-free media + simvastatin (0.04 μM)” value does the source give for `CN(C)CCN(Cc1ccc(Cl)cc1)c1ccccn1` [Chloropyramine hydrochloride] here?
**A.** Its value is 0.999.

same assay, conditions: NCI-H292 cells, complete media; FDA drug library screen (TABLE 2)

**Q.** Which “Complete Media” value does the source give for `CC(=O)O[C@]1(C(C)=O)CC[C@H]2[C@@H]3C=C(Cl)C4=CC(=O)CC[C@]4(C)[C@H]3CC[C@@]21C` [Chlormadinone acetate] here?
**A.** Its value is 1.06.

same assay, conditions: NCI-H292 cells, complete media; cell growth value in FDA drug screen

**Q.** How did the “Complete Media” value turn out when `O=C(Cn1cnnn1)N[C@@H]1C(=O)N2C(C(=O)O)=C(CSc3nncs3)CS[C@H]12` [Ceftezole (sodium)] was run?
**A.** The value was 1.1.

**Q.** For `CO/N=C(\C(=O)N[C@@H]1C(=O)N2C(C(=O)OC(C)OC(C)=O)=C(COC(N)=O)CS[C@H]12)c1ccco1` (stereo partly drawn) [Cefuroxime axetil], which “Complete Media” value is on record?
**A.** The value was 1.073.

**Q.** `Cc1ccc(-c2cc(C(F)(F)F)nn2-c2ccc(S(N)(=O)=O)cc2)cc1` [Celecoxib] was tested. Which “Complete Media” value did it give?
**A.** The value was 1.302.

**Q.** For `CN(C)CCN(Cc1ccc(Cl)cc1)c1ccccn1` [Chloropyramine hydrochloride], which “Complete Media” value is on record?
**A.** Its value is 1.055.

same assay, conditions: complete media minus cholesterol-free media + simvastatin (0.04 μM); >0 enhanced anti-cancer activity, about 0 neutral, <0 antagonist

**Q.** How did the Difference turn out when `CC(=O)O[C@]1(C(C)=O)CC[C@H]2[C@@H]3C=C(Cl)C4=CC(=O)CC[C@]4(C)[C@H]3CC[C@@]21C` [Chlormadinone acetate] was run?
**A.** Its Difference is −0.02.

same assay, conditions: complete media minus cholesterol-free media + simvastatin; >0 enhanced anti-cancer activity, about 0 neutral, <0 antagonist

**Q.** With `O=C(Cn1cnnn1)N[C@@H]1C(=O)N2C(C(=O)O)=C(CSc3nncs3)CS[C@H]12` [Ceftezole (sodium)] as the compound, how does the Difference read?
**A.** Its Difference is 0.05.

**Q.** With `CO/N=C(\C(=O)N[C@@H]1C(=O)N2C(C(=O)OC(C)OC(C)=O)=C(COC(N)=O)CS[C@H]12)c1ccco1` (stereo partly drawn) [Cefuroxime axetil] as the compound, how does the Difference read?
**A.** Its Difference is 0.02.

**Q.** For `Cc1ccc(-c2cc(C(F)(F)F)nn2-c2ccc(S(N)(=O)=O)cc2)cc1` [Celecoxib], which Difference is on record?
**A.** Its Difference is 0.03.

**Q.** How did the Difference turn out when `CN(C)CCN(Cc1ccc(Cl)cc1)c1ccccn1` [Chloropyramine hydrochloride] was run?
**A.** The Difference was 0.06.

same assay, conditions: complete media vs cholesterol-free media + simvastatin (0.04 μM); >0 enhanced anti-cancer activity, about 0 neutral, <0 antagonist

**Q.** For `CC1=C(C(=O)O)N2C(=O)[C@@H](NC(=O)[C@H](N)c3ccccc3)[C@H]2SC1` [Cephalexin (monohydrate)], which Difference is on record?
**A.** Its Difference is −0.67.

**Q.** For `CC1=C(C(=O)O)N2C(=O)[C@@H](NC(=O)[C@H](N)c3ccccc3)[C@H]2SC1` [Cephalexin], which Difference is on record?
**A.** The Difference was −0.36.
